Test results published in PMC7123778 (ACS infectious diseases, 2019).

How the values were obtained:
[1] = test system: H. pylori G27; conditions: H. pylori G27, liquid media; cited from earlier work
[2] = cited from earlier work
[3] = target: T1, rat liver TrxR (Rattus norvegicus, UniProt O89049); assay: TrxR inhibition assay; type: biochemical; conditions: purified rat liver TrxR, DTNB, ΔA412 after 10 minutes
T1 sequence (O89049 1-499): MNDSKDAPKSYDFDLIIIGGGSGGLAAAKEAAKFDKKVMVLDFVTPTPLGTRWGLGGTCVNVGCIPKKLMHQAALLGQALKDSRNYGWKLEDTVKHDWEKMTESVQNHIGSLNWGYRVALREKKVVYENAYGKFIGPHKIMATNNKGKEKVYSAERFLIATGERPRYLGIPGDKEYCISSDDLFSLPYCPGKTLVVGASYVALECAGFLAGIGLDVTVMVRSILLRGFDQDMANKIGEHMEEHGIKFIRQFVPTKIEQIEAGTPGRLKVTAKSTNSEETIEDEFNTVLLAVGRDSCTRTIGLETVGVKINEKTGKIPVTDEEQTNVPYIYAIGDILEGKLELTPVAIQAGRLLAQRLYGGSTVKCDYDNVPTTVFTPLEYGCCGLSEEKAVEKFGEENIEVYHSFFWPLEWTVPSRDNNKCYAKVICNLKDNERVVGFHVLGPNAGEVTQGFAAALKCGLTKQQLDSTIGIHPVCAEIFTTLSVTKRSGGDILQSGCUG

[4] = test system: free thiols in H. pylori; assay: Free thiol depletion assay; type: cell-based, Helicobacter pylori; conditions: H. pylori treated with 5.0 μM for four hours

Row | Compound | previously reported MIC [1] [µM] | logP [2] | half maximal inhibitory concentration (IC50) of TrxR [3] | free thiol concentration in comparison to untreated samples [4]
1 | CC(=O)OC[C@H]1O[C@@H]([S-])[C@H](OC(C)=O)[C@@H](OC(C)=O)[C@@H]1OC(C)=O.CCP(CC)CC.[Au+] [Compound 1, auranofin] | 1.2 | 0.56 | – | –
2 | CC(=O)NC1C([S][Au][PH](C)(C)C)OC(CO)C(O)C1O (centres unmarked) [Compound 6] | – | −2.03 | inhibited TrxR most effectively | –
3 | CC1(C)S[C@@H]2[C@H](NC(=O)[C@H](N)c3ccc(O)cc3)C(=O)N2[C@H]1C(=O)O [amoxicillin] | – | – | – | no differences in free thiol concentrations
